# Measured values published in patent US10364216B2, “Alkenyl sulfate ester or salt thereof” (Kao Corporation, priority 2013, dated 2019).
# Structures can show the parent of a compound that is named as a salt.
# Target: T1, ENaC complex (human ENaCα, β and γ) (Homo sapiens, UniProt P37088+P51168+P51170)
# T1 construct: host or cells: Xenopus oocytes injected with cRNA
# T1 sequence (P37088 1-669): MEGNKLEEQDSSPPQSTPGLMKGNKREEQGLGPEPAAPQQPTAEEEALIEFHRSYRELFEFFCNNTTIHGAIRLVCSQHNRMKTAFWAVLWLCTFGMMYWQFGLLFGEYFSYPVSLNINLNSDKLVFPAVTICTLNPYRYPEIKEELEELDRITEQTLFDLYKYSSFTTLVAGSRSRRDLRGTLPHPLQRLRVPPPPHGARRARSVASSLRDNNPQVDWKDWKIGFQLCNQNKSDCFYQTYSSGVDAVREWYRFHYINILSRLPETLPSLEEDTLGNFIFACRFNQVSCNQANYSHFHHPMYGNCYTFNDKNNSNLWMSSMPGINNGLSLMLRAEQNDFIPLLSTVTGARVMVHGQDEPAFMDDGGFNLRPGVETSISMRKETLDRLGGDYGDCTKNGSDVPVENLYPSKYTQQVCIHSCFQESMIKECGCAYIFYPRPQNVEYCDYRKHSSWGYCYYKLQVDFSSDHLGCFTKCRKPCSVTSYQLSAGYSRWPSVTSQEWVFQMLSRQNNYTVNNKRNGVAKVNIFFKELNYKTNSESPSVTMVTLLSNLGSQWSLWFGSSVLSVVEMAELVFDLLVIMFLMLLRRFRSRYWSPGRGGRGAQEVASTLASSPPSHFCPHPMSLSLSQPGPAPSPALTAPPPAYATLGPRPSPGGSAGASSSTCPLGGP
# T1 sequence (P51168 1-640): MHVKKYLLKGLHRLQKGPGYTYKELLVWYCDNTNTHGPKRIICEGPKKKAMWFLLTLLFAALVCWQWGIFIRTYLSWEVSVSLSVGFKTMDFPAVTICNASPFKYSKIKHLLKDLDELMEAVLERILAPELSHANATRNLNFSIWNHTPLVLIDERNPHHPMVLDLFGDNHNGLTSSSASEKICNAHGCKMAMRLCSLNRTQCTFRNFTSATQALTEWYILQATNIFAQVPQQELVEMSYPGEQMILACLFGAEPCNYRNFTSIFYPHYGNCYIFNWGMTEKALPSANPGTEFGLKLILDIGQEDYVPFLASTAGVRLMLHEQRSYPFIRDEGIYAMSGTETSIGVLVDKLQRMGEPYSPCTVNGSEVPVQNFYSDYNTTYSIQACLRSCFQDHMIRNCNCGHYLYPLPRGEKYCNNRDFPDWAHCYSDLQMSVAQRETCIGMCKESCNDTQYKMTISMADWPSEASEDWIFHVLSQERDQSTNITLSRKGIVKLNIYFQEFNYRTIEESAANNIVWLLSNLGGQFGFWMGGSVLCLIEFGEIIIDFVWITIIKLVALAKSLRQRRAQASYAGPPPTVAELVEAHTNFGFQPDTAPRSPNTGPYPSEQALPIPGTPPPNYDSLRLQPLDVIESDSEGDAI
# T1 sequence (P51170 1-649): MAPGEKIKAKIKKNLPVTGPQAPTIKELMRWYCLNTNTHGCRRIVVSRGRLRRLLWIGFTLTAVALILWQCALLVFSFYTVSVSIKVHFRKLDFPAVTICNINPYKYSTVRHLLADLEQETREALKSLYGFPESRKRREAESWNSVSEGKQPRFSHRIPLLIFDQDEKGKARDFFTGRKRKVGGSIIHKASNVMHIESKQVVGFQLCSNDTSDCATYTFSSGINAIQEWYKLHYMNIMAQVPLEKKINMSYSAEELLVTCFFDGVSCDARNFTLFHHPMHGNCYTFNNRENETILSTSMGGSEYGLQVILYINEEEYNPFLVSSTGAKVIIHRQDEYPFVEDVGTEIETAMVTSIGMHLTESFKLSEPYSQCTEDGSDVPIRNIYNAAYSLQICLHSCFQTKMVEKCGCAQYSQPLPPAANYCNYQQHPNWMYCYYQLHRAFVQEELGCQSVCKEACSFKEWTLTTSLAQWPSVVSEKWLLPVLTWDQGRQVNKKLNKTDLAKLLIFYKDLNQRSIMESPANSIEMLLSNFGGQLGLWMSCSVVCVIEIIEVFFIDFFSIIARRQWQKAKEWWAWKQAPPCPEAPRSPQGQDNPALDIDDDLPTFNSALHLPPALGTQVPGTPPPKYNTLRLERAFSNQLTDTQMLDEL
# Test: ENaC inhibition activity, two-electrode voltage clamp in Xenopus oocytes
# Type: cell-based
# Conditions: 3 to 30 mM; membrane potential −60 mV; 115 mM NaCl solution; FIG. 1
# Procedure: Inhibition activity of ENaC expressed in Xenopus oocytes was measured according to the method described in “The journal of biological chemistry, 284 (2): pages 792-798 (2009)”. Specifically, trans-3-octenyl sulfate was added to oocytes expressed with ENaC complex, and the activity of ENaC was analyzed electrophysiologically in accordance with the procedures described below.
# First, DNA sequences encoding human ENaCα, β and γ, respectively were obtained by carrying out PCR using a plasmid vector on which the same gene was cloned (manufactured by Clontech Laboratories, Inc.) as a template. The obtained PCR amplification fragment was integrated into a transcription vector pSP64 (manufactured by Promega Corporation), and pSP64/ENaCα, pSP64/ENaCβ and pSP64/ENaCγ were manufactured, respectively.
# pSP64/ENaCα and pSP64/ENaCγ were digested with EcoRI, and pSP64/ENaCβ was digested with PvuII, respectively, whereby linearize the plasmid DNA. […]
# The obtained aqueous solutions of cRNA encoding ENaCα, ENaCβ and ENaCγ respectively were mixed in the same quantity, and injected by 50 ng per one Xenopus oocyte. […]
# Two micro-glass electrodes were inserted into the oocyte, and the membrane potential was fixed at −60 mV. At this time, Na^+ ion influx induced by ENaC complex in a constantly active state was measured with replacement to change of the current amount. […]
smiles,measurement,value
CCCC/C=C/CCOS(=O)(=O)O [trans-3-octenyl sulfate],Effect on inward current of ENaC expressing oocytes,inhibited inward current of ENaC expressing oocytes concentration-dependently
